According to ChEMBL document CHEMBL3585344, “Thiazole-based aminopyrimidines and N-phenylpyrazolines as potent antimicrobial agents: synthesis and biological evaluation” (2014):
In brackets after ≈: the same amount, converted by molar mass.

What was measured:
Salmonella typhimurium [1] = assay: Bactericidal activity against Salmonella typhimurium ATCC 13311 after 72 hrs by microdilution method; format: functional, Salmonella enterica subsp. enterica serovar Typhimurium
Listeria monocytogenes [2] = assay: Antibacterial activity against Listeria monocytogenes NCTC 7973 after 24 hrs by microdilution method; format: functional; conditions: NCTC 7973, 24 h
Trichoderma viride [3] = assay: Antifungal activity against Trichoderma viride IAM 5061 after 72 hrs by microdilution method; format: functional; conditions: IAM 5061, 72 h
Aspergillus versicolor [4] = assay: Fungicidal activity against Aspergillus versicolor ATCC 11730 after 72 hrs by microdilution method; format: functional
Pseudomonas aeruginosa [5] = assay: Bactericidal activity against Pseudomonas aeruginosa ATCC 27853 after 72 hrs by microdilution method; format: functional
Candida albicans [6] = assay: Fungicidal activity against Candida albicans ATCC 10231 isolated from human after 72 hrs by microdilution method; format: functional
Pseudomonas aeruginosa [7] = assay: Antibacterial activity against Pseudomonas aeruginosa ATCC 27853 after 24 hrs by microdilution method; format: functional; conditions: ATCC 27853, 24 h
Bacillus cereus [8] = assay: Antibacterial activity against Bacillus cereus clinical isolate after 24 hrs by microdilution method; format: functional
Enterobacter cloacae [9] = assay: Antibacterial activity against Enterobacter cloacae ATCC 35030 isolated from human after 24 hrs by microdilution method; format: functional; conditions: ATCC 35030, 24 h
Escherichia coli [10] = assay: Antibacterial activity against Escherichia coli ATCC 35210 after 24 hrs by microdilution method; format: functional; conditions: ATCC 35210, 24 h
Listeria monocytogenes [11] = assay: Bactericidal activity against Listeria monocytogenes NCTC 7973 after 72 hrs by microdilution method; format: functional
Penicillium ochrochloron [12] = assay: Antifungal activity against Penicillium ochrochloron ATCC 9112 after 72 hrs by microdilution method; format: functional; conditions: ATCC 9112, 72 h
Aspergillus ochraceus [13] = assay: Fungicidal activity against Aspergillus ochraceus ATCC 12066 after 72 hrs by microdilution method; format: functional
Enterobacter cloacae [14] = assay: Bactericidal activity against Enterobacter cloacae ATCC 35030 isolated from human after 72 hrs by microdilution method; format: functional
Aspergillus niger [15] = assay: Antifungal activity against Aspergillus niger ATCC 6275 after 72 hrs by microdilution method; format: functional; conditions: ATCC 6275, 72 h
Candida albicans [16] = assay: Antifungal activity against Candida albicans ATCC 10231 isolated from human after 72 hrs by microdilution method; format: functional; conditions: ATCC 10231, 72 h
Trichoderma viride [17] = assay: Fungicidal activity against Trichoderma viride IAM 5061 after 72 hrs by microdilution method; format: functional
Staphylococcus aureus [18] = assay: Antibacterial activity against Staphylococcus aureus ATCC 6538 after 24 hrs by microdilution method; format: functional; conditions: ATCC 6538, 24 h
Talaromyces funiculosus [19] = assay: Antifungal activity against Penicillium funiculosum ATCC 36839 after 72 hrs by microdilution method; format: functional; conditions: ATCC 36839, 72 h
Micrococcus flavus [20] = assay: Bactericidal activity against Micrococcus flavus ATCC 10240 after 72 hrs by microdilution method; format: functional
Aspergillus fumigatus [21] = assay: Antifungal activity against Aspergillus fumigatus isolated from human after 72 hrs by microdilution method; format: functional
Talaromyces funiculosus [22] = assay: Fungicidal activity against Penicillium funiculosum ATCC 36839 after 72 hrs by microdilution method; format: functional
Escherichia coli [23] = assay: Bactericidal activity against Escherichia coli ATCC 35210 after 72 hrs by microdilution method; format: functional
Aspergillus niger [24] = assay: Fungicidal activity against Aspergillus niger ATCC 6275 after 72 hrs by microdilution method; format: functional
Salmonella typhimurium [25] = assay: Antibacterial activity against Salmonella typhimurium ATCC 13311 after 24 hrs by microdilution method; format: functional, Salmonella enterica subsp. enterica serovar Typhimurium; conditions: Salmonella enterica, ATCC 13311, 24 h
Staphylococcus aureus [26] = assay: Bactericidal activity against Staphylococcus aureus ATCC 6538 after 72 hrs by microdilution method; format: functional
Aspergillus versicolor [27] = assay: Antifungal activity against Aspergillus versicolor ATCC 11730 after 72 hrs by microdilution method; format: functional; conditions: ATCC 11730, 72 h
Aspergillus fumigatus [28] = assay: Fungicidal activity against Aspergillus fumigatus isolated from human after 72 hrs by microdilution method; format: functional
Bacillus cereus [29] = assay: Bactericidal activity against Bacillus cereus clinical isolate after 72 hrs by microdilution method; format: functional
Micrococcus flavus [30] = assay: Antibacterial activity against Micrococcus flavus ATCC 10240 after 24 hrs by microdilution method; format: functional; conditions: ATCC 10240, 24 h
Penicillium ochrochloron [31] = assay: Fungicidal activity against Penicillium ochrochloron ATCC 9112 after 72 hrs by microdilution method; format: functional
Aspergillus ochraceus [32] = assay: Antifungal activity against Aspergillus ochraceus ATCC 12066 after 72 hrs by microdilution method; format: functional; conditions: ATCC 12066, 72 h

SMILES	MBC99.5 (Salmonella typhimurium [1]) [×10⁻² umol/ml]	MIC (Listeria monocytogenes [2]) [µM]	MIC (Trichoderma viride [3]) [µM]	MFC99.5 (Aspergillus versicolor [4]) [×10⁻² umol/ml]	MBC99.5 (Pseudomonas aeruginosa [5]) [×10⁻² umol/ml]	MFC99.5 (Candida albicans [6]) [×10⁻² umol/ml]	MIC (Pseudomonas aeruginosa [7]) [µM]	MIC (Bacillus cereus [8]) [µM]	MIC (Enterobacter cloacae [9]) [µM]	MIC (Escherichia coli [10]) [µM]	MBC99.5 (Listeria monocytogenes [11]) [×10⁻² umol/ml]	MIC (Penicillium ochrochloron [12]) [µM]	MFC99.5 (Aspergillus ochraceus [13]) [×10⁻² umol/ml]	MBC99.5 (Enterobacter cloacae [14]) [×10⁻² umol/ml]	MIC (Aspergillus niger [15]) [µM]	MIC (Candida albicans [16]) [µM]	MFC99.5 (Trichoderma viride [17]) [×10⁻² umol/ml]	MIC (Staphylococcus aureus [18]) [µM]	MIC (Talaromyces funiculosus [19]) [µM]	MBC99.5 (Micrococcus flavus [20]) [×10⁻² umol/ml]	other results
CNc1nc(C)c(C2=NN(c3ccccc3)C(c3ccc(OC)cc3)C2)s1 (stereo unspecified)	26.4	53 (≈ 20.1 µg/mL)	132 (≈ 50 µg/mL)	21.1	26.4	37	158 (≈ 59.8 µg/mL)	158 (≈ 59.8 µg/mL)	132 (≈ 50 µg/mL)	185 (≈ 70 µg/mL)	10.6	264 (≈ 99.9 µg/mL)	13.2	18.5	132 (≈ 50 µg/mL)	264 (≈ 99.9 µg/mL)	13.2	106 (≈ 40.1 µg/mL)	264 (≈ 99.9 µg/mL)	15.8	MIC (Aspergillus fumigatus [21]): 264 µM (≈ 99.9 µg/mL); MFC99.5 (Talaromyces funiculosus [22]): 37 ×10⁻² umol/ml; MBC99.5 (Escherichia coli [23]): 21.1 ×10⁻² umol/ml; MFC99.5 (Aspergillus niger [24]): 26.4 ×10⁻² umol/ml; MIC (Salmonella typhimurium [25]): 185 µM (≈ 70 µg/mL); MBC99.5 (Staphylococcus aureus [26]): 15.8 ×10⁻² umol/ml; MIC (Aspergillus versicolor [27]): 132 µM (≈ 50 µg/mL); MFC99.5 (Aspergillus fumigatus [28]): 37 ×10⁻² umol/ml; MBC99.5 (Bacillus cereus [29]): 26.4 ×10⁻² umol/ml; MIC (Micrococcus flavus [30]): 106 µM (≈ 40.1 µg/mL); MFC99.5 (Penicillium ochrochloron [31]): 37 ×10⁻² umol/ml; MIC (Aspergillus ochraceus [32]): 132 µM (≈ 50 µg/mL)
CNc1nc(C)c(C2=NN(c3ccccc3)C(c3ccc([N+](=O)[O-])cc3)C2)s1 (stereo unspecified)	25.4	76 (≈ 29.9 µg/mL)	127 (≈ 50 µg/mL)	32.2	25.4	40.6	203 (≈ 79.9 µg/mL)	203 (≈ 79.9 µg/mL)	127 (≈ 50 µg/mL)	178 (≈ 70 µg/mL)	10.2	254 (≈ 99.9 µg/mL)	20.3	20.3	254 (≈ 99.9 µg/mL)	305 (≈ 120 µg/mL)	15.2	102 (≈ 40.1 µg/mL)	254 (≈ 99.9 µg/mL)	20.3	MIC (Aspergillus fumigatus [21]): 127 µM (≈ 50 µg/mL); MFC99.5 (Talaromyces funiculosus [22]): 32.2 ×10⁻² umol/ml; MBC99.5 (Escherichia coli [23]): 20.3 ×10⁻² umol/ml; MFC99.5 (Aspergillus niger [24]): 32.2 ×10⁻² umol/ml; MIC (Salmonella typhimurium [25]): 152 µM (≈ 59.8 µg/mL); MBC99.5 (Staphylococcus aureus [26]): 20.3 ×10⁻² umol/ml; MIC (Aspergillus versicolor [27]): 254 µM (≈ 99.9 µg/mL); MFC99.5 (Aspergillus fumigatus [28]): 15.2 ×10⁻² umol/ml; MBC99.5 (Bacillus cereus [29]): 25.4 ×10⁻² umol/ml; MIC (Micrococcus flavus [30]): 127 µM (≈ 50 µg/mL); MFC99.5 (Penicillium ochrochloron [31]): 32.2 ×10⁻² umol/ml; MIC (Aspergillus ochraceus [32]): 127 µM (≈ 50 µg/mL)
CNc1nc(C)c(C2=NN(c3ccccc3)C(c3ccc(Cl)cc3)C2)s1 (stereo unspecified)	18.3	52 (≈ 19.9 µg/mL)	131 (≈ 50.2 µg/mL)	21	31.4	26.2	152 (≈ 58.2 µg/mL)	157 (≈ 60.1 µg/mL)	131 (≈ 50.2 µg/mL)	183 (≈ 70.1 µg/mL)	10.5	131 (≈ 50.2 µg/mL)	15.7	18.3	131 (≈ 50.2 µg/mL)	157 (≈ 60.1 µg/mL)	21	105 (≈ 40.2 µg/mL)	262 (≈ 100 µg/mL)	21	MIC (Aspergillus fumigatus [21]): 131 µM (≈ 50.2 µg/mL); MFC99.5 (Talaromyces funiculosus [22]): 36.7 ×10⁻² umol/ml; MBC99.5 (Escherichia coli [23]): 21 ×10⁻² umol/ml; MFC99.5 (Aspergillus niger [24]): 26.2 ×10⁻² umol/ml; MIC (Salmonella typhimurium [25]): 152 µM (≈ 58.2 µg/mL); MBC99.5 (Staphylococcus aureus [26]): 21 ×10⁻² umol/ml; MIC (Aspergillus versicolor [27]): 131 µM (≈ 50.2 µg/mL); MFC99.5 (Aspergillus fumigatus [28]): 26.2 ×10⁻² umol/ml; MBC99.5 (Bacillus cereus [29]): 31.4 ×10⁻² umol/ml; MIC (Micrococcus flavus [30]): 105 µM (≈ 40.2 µg/mL); MFC99.5 (Penicillium ochrochloron [31]): 15.7 ×10⁻² umol/ml; MIC (Aspergillus ochraceus [32]): 131 µM (≈ 50.2 µg/mL)
